# Measurements reported in patent US20230218577A1, “USE OF HEAT SHOCK PROTEIN INHIBITORS FOR THE TREATMENT OF NEURODEVELOPMENTAL DISORDERS” (The Children's Medical Center Corporation, priority 2020, published 2023).
# Test system: Hsp27, Hsp40, Hsp60, Hsp70, Hsp90 expression in Tsc2-sh neurons
# Experiment: Western blot of heat shock proteins in Tsc2-sh neurons
# Assay type: cell-based, rat
# Conditions: for down-regulating Hsp27 expression: increasing doses for four days DIV 9-13
# Source text: To investigate the mechanism and explore the pharmacological window by which 17-AGG increases ciliation in Tsc2-knockdown neurons, the heat shock response in these neurons was examined. The heat shock proteins (Hsps) are divided into six families based on their size, and these proteins function in multi-component complexes that are closely inter-related (Chatterjee and Burns, Targeting Heat Shock Proteins in Cancer: A Promising Therapeutic Approach; Int J Mol Sci 18 (2017)). In addition, while most of them are constitutively expressed, some are expressed only under stress (Garrido et al., Heat shock proteins 27 and 70: anti-apoptotic proteins with tumorigenic properties; Cell Cycle 5, 2592-2601 (2006)). Expression levels of Hsp90 and other HSP family members at DIV13 and DIV20 was assessed following four days of treatment with different concentrations of the Hsp90 inhibitor 17-AGG. In the absence of any compound, Tsc2-knockdown neurons had increased levels of the small heat shock protein 27 (Hsp27) with no change in Hsp90, Hsp70, Hsp60 and Hsp40 (FIGS. 5A-L). […] In addition, there was no change observed in Hsp27 expression due to treatment with 17-AGG in Tsc2 knockdown neurons at DIV20, consistent with the lack of effect on cilia at that age (FIGS. 5G-H, FIG. 10F). Inhibition of the Hsp90 pathway by 17-AGG was confirmed by induction of Hsp40 and Hsp70, consistent with the reported release of Hsp90-dependent inhibition on HSF1 (Zou et al., Repression of heat shock transcription factor HSF1 activation by HSP90 (HSP90 complex) that forms a stress-sensitive complex with HSF1; Cell 94, 471-480 (1998)) (FIGS. 5A, C, E, G, K). It was then evaluated whether Hsp27 upregulation was linked to mTORC1 hyper-activation. […] These findings indicate that Hsp27 contributes to the mTORC1-dependent mechanism implicated in defective ciliation under loss of neuronal TSC1/2 activity.
# To test whether Hsp27 down-regulation may contribute to restoring ciliation in Tsc2-deficient neurons, Hsp27 was knocked-down by hspB1 gene silencing using lentiviral expression of RFP-tagged Hsp27shRNA (RFP-Hsp27sh) or scrambled shRNA as a control (RFP-C).
# The effect of CUDC-305 and NPV-HSP-990 on Hsp27 expression was then tested.
# Protein extracts were lysed in 1×SDS (22 mM Tris-HCl pH 6.8, 4% Glycerol, 0.8% SDS, 1.6% β-mercaptoethanol, bromphenol blue) sample buffer, heated to 95° C. for 5 min and stored frozen. Before being subjected to discontinuous gel electrophoresis, equal amounts of all protein lysates were verified by Coomassie gel staining. For immunoblotting, equal amounts of protein lysates were subjected to SDS-PAGE, transferred to Immobilon-P Millipore and incubated in LI-COR blocking solution at RT for 2 hrs. Primary and secondary antibodies were diluted in LI-COR blocking solution to the appropriate concentrations. LI-COR IRDye secondary antibodies were used. All images were acquired using the LI-COR Odyssey Classic imager and associated Image Studio Lite analysis software (version 5.2.5). Quantification of protein expression was performed by densitometry scans of immunoblots using LI-COR Odyssey imaging system.
# Western blot quantifications were performed by protein normalization using GAPDH as loading control. Level of phosphorylated proteins was expressed as the ratio of phosphorylated/total level after GAPDH normalization. Low sample size datasets were tested for normality and when appropriate they were analyzed with non-parametric tests. IC50 values were calculated using the nonlinear regression equation “dose-response curves—Inhibition” of GraphPad PRISM. Data were expressed as percent of vehicle-treated Tsc2-sh neurons which were considered 100% and drug's concentrations were transformed to logarithmic 10 scale. EC50 values were calculated using the nonlinear regression equation “dose-response curves—Stimulation” of Prism. […]
# [1] = Tsc2-sh neurons, four-day dose curve
smiles,measurement,setting,value
"COc1cccc(-c2cc(F)ccc2[C@H]2Cc3nc(N)nc(C)c3C(=O)N2)n1 [NPV-HSP-990, (R)-2-amino-7-((R)-4-fluoro-2-(6-methoxypyridin-2-yl)phenyl)-4-methyl-7,8-dihydropyrido[4,3-d]pyrimidin-5(6H)-one]",down-regulating Hsp27 expression,Tsc2-sh neurons,Neither compound had a significant effect
"C=CCNC1=C2C[C@@H](C)C[C@H](OC)[C@H](O)[C@@H](C)/C=C(\C)[C@H](OC(N)=O)[C@@H](OC)C=C/C=C(\C)C(=O)NC(=CC1=O)C2=O [17-AGG, 3 S,5S,6R,7S,8E,10R,11S,12E,14E)-21-(allylamino)-6-hydroxy-5,11-dimethoxy-3,7,9,15-tetramethyl-16,20,22-trioxo-17-azabicyclo[16.3.1]docosa-8,12,14,18,21-pentaen-10-yl] carbamate]",Hsp40 expression,[1],induction
same,Hsp70 expression,[1],induction
same,aberrant Hsp27 expression,"Tsc2 knockdown cultures at DIV13, four days of 17-AGG ranging from 5-450 nM",reduced
same,Hsp27 expression,"Tsc2 knockdown neurons at DIV20, four days of treatment",no change
"CN(C)c1cc2c(cc1Sc1nc3c(N)nccc3n1CCNCC(C)(C)C)OCO2 [CUDC-305, 4-amino-2-[[6-(dimethylamino)-1,3-benzodioxol-5-yl]thio]-N-(2,2-dimethylpropyl)-1H-imidazo[4,5-c]pyridine-1-ethanamine]",down-regulating Hsp27 expression,Tsc2-sh neurons,Neither compound had a significant effect
CO[C@H]1C[C@@H]2CC[C@@H](C)[C@@](O)(O2)C(=O)C(=O)N2CCCC[C@H]2C(=O)O[C@H]([C@H](C)C[C@@H]2CC[C@@H](O)[C@H](OC)C2)CC(=O)[C@H](C)/C=C(\C)[C@@H](O)[C@@H](OC)C(=O)[C@H](C)C[C@H](C)/C=C/C=C/C=C/1C [rapamycin],Hsp27 upregulation,"Tsc2-sh neurons, 20 nM rapamycin between DIV9-13, measured at DIV13",reduced
